Data taken from ChEMBL document CHEMBL5126582, “Discovery of (2-(pyrrolidin-1-yl)thieno[3,2-d]pyrimidin-4-yl)(3,4,5-trimethoxyphenyl)methanone as a novel potent tubulin depolymerizing and vascular disrupting agent” (Eur J Med Chem, 2022).
Calls of active or inactive are those of the source. The rule behind the calls is not given here.

Tests used:
HeLa [1] = test: Induction of mitochondrial membrane potential alteration in human HeLa cells assessed as viable cells at 100 nM measured after 48 hrs by JC1 staining-based flow cytometry analysis (reference value: 90.9 %); assay type: functional; conditions: read-out: Activity
HeLa [2] = test: Induction of apoptosis in human HeLa cells assessed as late apoptotic cells at 750 nM incubated for 24 hrs by annexin V FITC and propidium iodide staining based flow cytometry analysis (reference value: 0.05%); assay type: functional
HeLa [3] = test: Induction of apoptosis in human HeLa cells assessed as necrotic cells at 100 nM incubated for 72 hrs by annexin V FITC and propidium iodide staining based flow cytometry analysis (reference value: 2.88 %); assay type: functional
HeLa [4] = test: Induction of apoptosis in human HeLa cells assessed as late apoptotic cells at 750 nM incubated for 48 hrs by annexin V FITC and propidium iodide staining based flow cytometry analysis (reference value: 8.87%); assay type: functional
HeLa [5] = test: Induction of mitochondrial membrane potential alteration in human HeLa cells assessed as necrotic cells at 250 nM measured after 48 hrs by JC1 staining-based flow cytometry analysis (reference value: 0%); assay type: functional
HeLa [6] = test: Induction of apoptosis in human HeLa cells assessed as viable cells at 100 nM incubated for 24 hrs by annexin V FITC and propidium iodide staining based flow cytometry analysis (reference value: 85.7%); assay type: functional; conditions: read-out: Activity
HeLa [7] = test: Induction of mitochondrial membrane potential alteration in human HeLa cells assessed as necrotic cells at 1 uM measured after 48 hrs by JC1 staining-based flow cytometry analysis (reference value: 0%); assay type: functional
HeLa [8] = test: Induction of apoptosis in human HeLa cells assessed as early apoptotic cells at 100 nM incubated for 48 hrs by annexin V FITC and propidium iodide staining based flow cytometry analysis (reference value: 6.01%); assay type: functional
HeLa [9] = test: Induction of apoptosis in human HeLa cells assessed as early apoptotic cells at 750 nM incubated for 48 hrs by annexin V FITC and propidium iodide staining based flow cytometry analysis (reference value: 6.01%); assay type: functional
HeLa [10] = test: Induction of cell cycle arrest in human HeLa cells assessed as accumulation of cells at G2/M phase at 100 to 2000 nM incubated for 24 to 48 hrs by […] flow cytometry; assay type: functional; conditions: dose 100-2000 nM, time 24-48 hrs, DDE = dose-dependent effect
HUVEC = test: Antivascular activity against human HUVEC cells assessed as inhibition of tube formation at 500 nM incubated for 3 hrs by matrigel matrix based microscopic analysis; assay type: functional, cell-based
HeLa [11] = test: Induction of apoptosis in human HeLa cells assessed as viable cells at 1 uM incubated for 24 hrs by annexin V FITC and propidium iodide staining based flow cytometry analysis (reference value: 85.7%); assay type: functional; conditions: read-out: Activity
[12] = Metabolic stability in rat liver microsomes incubated for 5 mins in absence of NADPH by HPLC analysis; assay type: ADME, Microsome
[13] = Metabolic stability in rat liver microsomes assessed as half life incubated for 5 mins in presence of NADPH by HPLC analysis; assay type: ADME, Microsome
HeLa [14] = test: Induction of apoptosis in human HeLa cells assessed as viable cells at 750 nM incubated for 72 hrs by annexin V FITC and propidium iodide staining based flow cytometry analysis (reference value: 90.1%); assay type: functional; conditions: read-out: Activity
HeLa [15] = test: Induction of apoptosis in human HeLa cells assessed as viable cells at 1 uM incubated for 48 hrs by annexin V FITC and propidium iodide staining based flow cytometry analysis (reference value: 85.5%); assay type: functional; conditions: read-out: Activity
HeLa [16] = test: Induction of apoptosis in human HeLa cells assessed as late apoptotic cells at 1 uM incubated for 24 hrs by annexin V FITC and propidium iodide staining based flow cytometry analysis (reference value: 0.05%); assay type: functional
HeLa [17] = test: Induction of mitochondrial membrane potential alteration in human HeLa cells assessed as late apoptotic cells at 250 nM measured after 48 hrs by JC1 staining-based flow cytometry analysis (reference value: 0.009%); assay type: functional
HCT-116 = test: Antiproliferative activity against human HCT-116 cells assessed as reduction in cell viability incubated for 48 hrs by MTS assay; assay type: functional, cell-based; conditions: HCT-116, 48 h
HeLa [18] = test: Induction of apoptosis in human HeLa cells assessed as viable cells at 500 nM incubated for 48 hrs by annexin V FITC and propidium iodide staining based flow cytometry analysis (reference value: 85.5%); assay type: functional; conditions: read-out: Activity
HeLa [19] = test: Induction of apoptosis in human HeLa cells assessed as early apoptotic cells at 1 uM incubated for 48 hrs by annexin V FITC and propidium iodide staining based flow cytometry analysis (reference value: 6.01%); assay type: functional
HeLa [20] = test: Induction of apoptosis in human HeLa cells assessed as early apoptotic cells at 1 uM incubated for 24 hrs by annexin V FITC and propidium iodide staining based flow cytometry analysis (reference value: 0.12%); assay type: functional
HeLa [21] = test: Induction of cell cycle arrest in human HeLa cells assessed as reduction of cells at S phase at 100 to 2000 nM incubated for 24 to 48 hrs by […] flow cytometry; assay type: functional; conditions: dose 100-2000 nM, time 24-48 hrs
HeLa [22] = test: Induction of mitochondrial membrane potential alteration in human HeLa cells assessed as early apoptotic cells at 750 nM measured after 48 hrs by JC1 staining-based flow cytometry analysis (reference value: 9.07 %); assay type: functional
HeLa [23] = test: Induction of apoptosis in human HeLa cells assessed as necrotic cells at 500 nM incubated for 48 hrs by annexin V FITC and propidium iodide staining based flow cytometry analysis (reference value: 1.85 %); assay type: functional
[24] = Antiproliferative activity against human A549/PTX cells assessed as reduction in cell viability measured for 48 hrs by MTS assay; assay type: functional, cell-based
HeLa [25] = test: Induction of mitochondrial membrane potential alteration in human HeLa cells assessed as viable cells at 750 nM measured after 48 hrs by JC1 staining-based flow cytometry analysis (Rvb =90.9 %); assay type: functional; conditions: read-out: Activity
Tubulin (Homo sapiens) = Tubulin (Homo sapiens) (UniProt P68371+Q9H4B7+P0DPH7+P68366+Q13509+Q71U36+P04350+Q3ZCM7+P07437+P68363+Q9BQE3+Q6PEY2+Q13885+Q9BVA1+Q9BUF5); test: Disruption of microtubule network in human HeLa cells at 100 to 500 nM incubated for 3 hrs by laser confocal microscopy analysis; assay type: cell-based; conditions: dose 100-500 nM, DDE = dose-dependent effect
HeLa [26] = test: Induction of apoptosis in human HeLa cells assessed as necrotic cells at 100 nM incubated for 48 hrs by annexin V FITC and propidium iodide staining based flow cytometry analysis (reference value: 1.85 %); assay type: functional
HeLa [27] = test: Induction of apoptosis in human HeLa cells assessed as viable cells at 100 nM incubated for 48 hrs by annexin V FITC and propidium iodide staining based flow cytometry analysis (reference value: 85.5%); assay type: functional; conditions: read-out: Activity
HeLa [28] = test: Induction of apoptosis in human HeLa cells assessed as late apoptotic cells at 100 nM incubated for 72 hrs by annexin V FITC and propidium iodide staining based flow cytometry analysis (reference value: 4.70%); assay type: functional
HL-60 = test: Antiproliferative activity against human HL-60 cells assessed as reduction in cell viability incubated for 48 hrs by MTS assay; assay type: functional, cell-based; conditions: HL-60, 48 h

COc1cc(C(=O)c2nc(N3CCCC3)nc3ccsc23)cc(OC)c1OC
viability at 0.1 µM (HeLa [1]): 92.4% | Activity (HeLa [2]): 7.06% | Activity (HeLa [3]): 5.32% | Activity (HeLa [4]): 33.1% | Activity (HeLa [5]): 0.01% | viability at 0.1 µM (HeLa [6]): 80.5% | Activity (HeLa [7]): 0.053% | Activity (HeLa [8]): 2.8% | Activity (HeLa [9]): 7.72% | Activity (HeLa [10]): Dde | Activity (HUVEC): Active | viability at 1 µM (HeLa [11]): 80.1% | Stability [12]: Stable | half-life [13]: 17 min | viability at 0.75 µM (HeLa [14]): 27.7% | viability at 1 µM (HeLa [15]): 0.77% | Activity (HeLa [16]): 0.13% | Activity (HeLa [17]): 0.01% | IC50 (HCT-116): 21 nM | viability at 0.5 µM (HeLa [18]): 78.1% | Activity (HeLa [19]): 2.09% | Activity (HeLa [20]): 7.23% | Activity (HeLa [21]): Active | Activity (HeLa [22]): 43.3% | Activity (HeLa [23]): 8.84% | IC50 [24]: 24.4 nM | viability at 0.75 µM (HeLa [25]): 56.7% | Activity (Tubulin (Homo sapiens)): Dde | Activity (HeLa [26]): 2.38% | viability at 0.1 µM (HeLa [27]): 60.7% | Activity (HeLa [28]): 8.57% | IC50 (HL-60): 8 nM
